Molecular target: PD-1/PD-L1 (Homo sapiens (Human), UniProt Q9NZQ7)
Experiment: PD-1/PD-L1 binding assay (HTRF)
Summary of the method: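 HTRF read-out (665/620 nm) after 60 min at 25 °C with 1 nM Eu anti-human IgG and 20 nM APC anti-His. Beforehand, inhibitors were preincubated 40 min with Fc-PD-1 (25-167, […] as listed) and His-PD-L1 (19-238, 10 nM) in PBS pH 7.4 with Tween-20, BSA, 1% DMSO; IC50 from log-concentration curve.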

PD-1/PD-L1, sequence (Q9NZQ7 19-238): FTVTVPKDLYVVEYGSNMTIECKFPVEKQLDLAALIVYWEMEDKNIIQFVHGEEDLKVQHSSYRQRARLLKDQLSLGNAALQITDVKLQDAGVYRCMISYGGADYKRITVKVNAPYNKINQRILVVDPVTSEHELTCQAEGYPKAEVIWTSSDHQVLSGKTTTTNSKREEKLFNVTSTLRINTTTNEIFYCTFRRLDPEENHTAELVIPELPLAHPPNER

Structure (SMILES)	IC50 [nM]
Cn1c(C(=O)Nc2cccc(-c3cccc(NC(=O)c4nc5c(n4C)CCN(C4CCCC4)C5)c3Cl)c2Cl)nc2c1CCN(CC[C@H]1CC[C@H](C(=O)O)CC1)C2 [Example 90, trans-4-(2-(2-((2,2′-dichloro-3′-(5-cyclopentyl-1-methyl-4,5,6,7-tetrahydro-1H-imidazo[4,5-c]pyridine-2-carboxamido)-[1,1′-biphenyl]-3-yl)carbamoyl)-1-methyl-1,4,6,7-tetrahydro-5H-imidazo[4,5-c]pyridin-5-yl)ethyl)cyclohexane-1-carboxylic acid]	≤ 10
Cn1c(C(=O)Nc2cccc(-c3cccc(NC(=O)c4nc5c(n4C)CCN(C4CCCCC4)C5)c3Cl)c2Cl)nc2c1CCN(CC[C@H]1CC[C@H](C(=O)O)CC1)C2 [Example 91, trans-4-(2-(2-((2,2′-dichloro-3′-(5-cyclohexyl-1-methyl-4,5,6,7-tetrahydro-1H-imidazo[4,5-c]pyridine-2-carboxamido)-[1,1′-biphenyl]-3-yl)carbamoyl)-1-methyl-1,4,6,7-tetrahydro-5H-imidazo[4,5-c]pyridin-5-yl)ethyl)cyclohexane-1-carboxylic acid]	≤ 10
Cn1c(C(=O)Nc2cccc(-c3cccc(NC(=O)c4nc5c(n4C)CCN(C4CCOCC4)C5)c3Cl)c2Cl)nc2c1CCN(CC[C@H]1CC[C@H](C(=O)O)CC1)C2 [Example 92, trans-4-(2-(2-((2,2′-dichloro-3′-(1-methyl-5-(tetrahydro-2H-pyran-4-yl)-4,5,6,7-tetrahydro-1H-imidazo[4,5-c]pyridine-2-carboxamido)-[1,1′-biphenyl]-3-yl)carbamoyl)-1-methyl-1,4,6,7-tetrahydro-5H-imidazo[4,5-c]pyridin-5-yl)ethyl)cyclohexane-1-carboxylic acid]	≤ 10
Cn1c(C(=O)Nc2cccc(-c3cccc(NC(=O)c4nc5c(n4C)CCN(CC[C@H]4CC[C@H](C(=O)O)CC4)C5)c3Cl)c2Cl)nc2c1CCN(CCO)C2 [Example 93, trans-4-(2-(2-((2,2′-dichloro-3′-(5-(2-hydroxyethyl)-1-methyl-4,5,6,7-tetrahydro-1H-imidazo[4,5-c]pyridine-2-carboxamido)-[1,1′-biphenyl]-3-yl)carbamoyl)-1-methyl-1,4,6,7-tetrahydro-5H-imidazo[4,5-c]pyridin-5-yl)ethyl)cyclohexane-1-carboxylic acid]	≤ 10
C[C@H](O)CN1CCc2c(nc(C(=O)Nc3cccc(-c4cccc(NC(=O)c5nc6c(n5C)CCN(CC[C@H]5CC[C@H](C(=O)O)CC5)C6)c4Cl)c3Cl)n2C)C1 [Example 94, trans-4-(2-(2-((2,2′-dichloro-3′-(5-((S)-2-hydroxypropyl)-1-methyl-4,5,6,7-tetrahydro-1H-imidazo[4,5-c]pyridine-2-carboxamido)-[1,1′-biphenyl]-3-yl)carbamoyl)-1-methyl-1,4,6,7-tetrahydro-5H-imidazo[4,5-c]pyridin-5-yl)ethyl)cyclohexane-1-carboxylic acid]	≤ 10

Continued, values first:

IC50 [nM]	Structure (SMILES)
≤ 10	C[C@@H](O)CN1CCc2c(nc(C(=O)Nc3cccc(-c4cccc(NC(=O)c5nc6c(n5C)CCN(CC[C@H]5CC[C@H](C(=O)O)CC5)C6)c4Cl)c3Cl)n2C)C1 [Example 95, trans-4-(2-(2-((2,2′-dichloro-3′-(5-((R)-2-hydroxypropyl)-1-methyl-4,5,6,7-tetrahydro-1H-imidazo[4,5-c]pyridine-2-carboxamido)-[1,1′-biphenyl]-3-yl)carbamoyl)-1-methyl-1,4,6,7-tetrahydro-5H-imidazo[4,5-c]pyridin-5-yl)ethyl)cyclohexane-1-carboxylic acid]
≤ 10	Cn1c(C(=O)Nc2cccc(-c3cccc(NC(=O)c4nc5c(n4C)CCN(C4CCOCC4)C5)c3Cl)c2Cl)nc2c1CCN(CCc1ccc(C(=O)O)cc1)C2 [Example 96, 4-(2-(2-((2,2′-dichloro-3′-(1-methyl-5-(tetrahydro-2H-pyran-4-yl)-4,5,6,7-tetrahydro-1H-imidazo[4,5-c]pyridine-2-carboxamido)-[1,1′-biphenyl]-3-yl)carbamoyl)-1-methyl-1,4,6,7-tetrahydro-5H-imidazo[4,5-c]pyridin-5-yl)ethyl)benzoic acid]
≤ 10	Cn1c(C(=O)Nc2cccc(-c3cccc(NC(=O)c4nc5c(n4C)CCN(C4CCC(C(=O)O)CC4)C5)c3Cl)c2Cl)nc2c1CCN(C1CCOCC1)C2 (stereo not shown) [Example 97, 4-(2-((2,2′-dichloro-3′-(1-methyl-5-(tetrahydro-2H-pyran-4-yl)-4,5,6,7-tetrahydro-1H-imidazo[4,5-c]pyridine-2-carboxamido)-[1,1′-biphenyl]-3-yl)carbamoyl)-1-methyl-1,4,6,7-tetrahydro-5H-imidazo[4,5-c]pyridin-5-yl)cyclohexane-1-carboxylic acid]
≤ 10	Cn1c(C(=O)Nc2cccc(-c3cccc(NC(=O)c4nc5c(n4C)CCN(C4CCC(C)(C(=O)O)CC4)C5)c3Cl)c2Cl)nc2c1CCN(C1CCOCC1)C2 (stereo not shown) [Example 98, 4-(2-((2,2′-dichloro-3′-(1-methyl-5-(tetrahydro-2H-pyran-4-yl)-4,5,6,7-tetrahydro-1H-imidazo[4,5-c]pyridine-2-carboxamido)-[1,1′-biphenyl]-3-yl)carbamoyl)-1-methyl-1,4,6,7-tetrahydro-5H-imidazo[4,5-c]pyridin-5-yl)-1-methylcyclohexane-1-carboxylic acid]
≤ 10	CCC1(C(=O)O)CCC(N2CCc3c(nc(C(=O)Nc4cccc(-c5cccc(NC(=O)c6nc7c(n6C)CCN(C6CCOCC6)C7)c5Cl)c4Cl)n3C)C2)CC1 (stereo not shown) [Example 99, 4-(2-((2,2′-dichloro-3′-(1-methyl-5-(tetrahydro-2H-pyran-4-yl)-4,5,6,7-tetrahydro-1H-imidazo[4,5-c]pyridine-2-carboxamido)-[1,1′-biphenyl]-3-yl)carbamoyl)-1-methyl-1,4,6,7-tetrahydro-5H-imidazo[4,5-c]pyridin-5-yl)-1-ethylcyclohexane-1-carboxylic acid]
≤ 10	Cc1c(NC(=O)c2nc3c(n2C)CCN(CCc2ccc(C(=O)O)cc2)C3)cccc1-c1cccc(NC(=O)c2nc3c(n2C)CCN(C)C3)c1Cl [Example 101, 4-(2-(2-((2′-chloro-3′-(1,5-dimethyl-4,5,6,7-tetrahydro-1H-imidazo[4,5-c]pyridine-2-carboxamido)-2-methyl-[1,1′-biphenyl]-3-yl)carbamoyl)-1-methyl-1,4,6,7-tetrahydro-5H-imidazo[4,5-c]pyridin-5-yl)ethyl)benzoic acid]
≤ 10	Cc1c(NC(=O)c2nc3c(n2C)CCN(CC24CCC(C(=O)O)(CC2)C4)C3)cccc1-c1cccc(NC(=O)c2nc3c(n2C)CCN(C)C3)c1Cl [Example 102, 4-((2-((2′-chloro-3′-(1,5-dimethyl-4,5,6,7-tetrahydro-1H-imidazo[4,5-c]pyridine-2-carboxamido)-2-methyl-[1,1′-biphenyl]-3-yl)carbamoyl)-1-methyl-1,4,6,7-tetrahydro-5H-imidazo[4,5-c]pyridin-5-yl)methyl)bicyclo[2.2.1]heptane-1-carboxylic acid]
≤ 10	Cc1c(NC(=O)c2nc3c(n2C)CCN(CC24CCC(C(=O)O)(CC2)CC4)C3)cccc1-c1cccc(NC(=O)c2nc3c(n2C)CCN(C)C3)c1Cl [Example 103, 4-((2-(2′-chloro-3′-(1,5-dimethyl-4,5,6,7-tetrahydro-1H-imidazo[4,5-c]pyridine-2-carboxamido)-2-methylbiphenyl-3-ylcarbamoyl)-1-methyl-6,7-dihydro-1H-imidazo[4,5-c]pyridin-5(4H)-yl)methyl)bicyclo[2.2.2]octane-1-carboxylic acid]
